Where two headings read alike, the source gives them in different places.
Experiments:
Assay in all cases: Thermal stability shift assay
Format in all cases: binding
CHK2 = CHK2 (Homo sapiens, UniProt O96017); conditions: read-out: Tm shift CHK2
Method in brief: (§1)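 Protein at 2 μM was heated with 10 μM inhibitor in 10 mM HEPES pH 7.5, 500 mM NaCl containing SyproOrange (1:1000 dilution); thermal denaturation was followed by fluorescence in a real-time PCR instrument.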

GAK = molecular target: T1, GAK (Homo sapiens, UniProt O14976); conditions: read-out: Tm shift GAK
T1 construct: purchased in-house (SGC Oxford thermal shift panel)
T1 sequence (O14976 1-1311): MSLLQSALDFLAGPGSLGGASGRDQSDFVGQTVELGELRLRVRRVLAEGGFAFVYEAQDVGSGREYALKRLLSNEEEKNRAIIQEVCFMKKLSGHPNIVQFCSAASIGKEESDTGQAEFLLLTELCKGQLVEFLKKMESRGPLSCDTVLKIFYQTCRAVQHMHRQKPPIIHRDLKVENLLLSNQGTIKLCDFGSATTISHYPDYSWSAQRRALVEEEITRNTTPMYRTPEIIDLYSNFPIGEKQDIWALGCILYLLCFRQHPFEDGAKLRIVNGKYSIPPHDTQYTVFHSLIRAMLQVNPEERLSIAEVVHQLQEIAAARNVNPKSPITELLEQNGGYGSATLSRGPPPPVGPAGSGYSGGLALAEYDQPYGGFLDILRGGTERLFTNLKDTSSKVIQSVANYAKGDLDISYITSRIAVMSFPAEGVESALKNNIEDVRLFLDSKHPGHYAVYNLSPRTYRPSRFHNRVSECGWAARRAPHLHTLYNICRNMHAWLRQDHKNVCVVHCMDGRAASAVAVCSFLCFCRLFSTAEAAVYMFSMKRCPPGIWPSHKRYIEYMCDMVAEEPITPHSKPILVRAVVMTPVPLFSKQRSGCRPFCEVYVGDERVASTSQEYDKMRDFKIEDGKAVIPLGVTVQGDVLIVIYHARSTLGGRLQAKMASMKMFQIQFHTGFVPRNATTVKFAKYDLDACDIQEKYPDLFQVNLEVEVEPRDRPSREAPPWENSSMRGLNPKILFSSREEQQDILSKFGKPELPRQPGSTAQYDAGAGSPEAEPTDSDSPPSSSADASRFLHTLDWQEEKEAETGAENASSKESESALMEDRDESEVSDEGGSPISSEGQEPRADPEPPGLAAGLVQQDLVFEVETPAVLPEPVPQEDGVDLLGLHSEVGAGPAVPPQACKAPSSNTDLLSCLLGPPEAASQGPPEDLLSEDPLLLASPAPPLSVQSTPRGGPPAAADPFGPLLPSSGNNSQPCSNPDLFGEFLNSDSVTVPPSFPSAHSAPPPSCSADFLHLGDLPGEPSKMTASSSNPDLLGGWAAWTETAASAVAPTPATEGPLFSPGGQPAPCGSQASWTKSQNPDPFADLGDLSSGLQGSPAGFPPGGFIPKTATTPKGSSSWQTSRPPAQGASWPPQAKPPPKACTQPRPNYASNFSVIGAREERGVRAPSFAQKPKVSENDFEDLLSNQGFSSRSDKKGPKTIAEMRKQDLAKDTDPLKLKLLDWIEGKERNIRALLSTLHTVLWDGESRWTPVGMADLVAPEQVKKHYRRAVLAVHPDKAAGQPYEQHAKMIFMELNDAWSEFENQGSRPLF
Method in brief: as §1

SLK = SLK (Homo sapiens, UniProt Q9H2G2); conditions: read-out: Tm shift SLK
SLK, sequence (Q9H2G2 whole entry): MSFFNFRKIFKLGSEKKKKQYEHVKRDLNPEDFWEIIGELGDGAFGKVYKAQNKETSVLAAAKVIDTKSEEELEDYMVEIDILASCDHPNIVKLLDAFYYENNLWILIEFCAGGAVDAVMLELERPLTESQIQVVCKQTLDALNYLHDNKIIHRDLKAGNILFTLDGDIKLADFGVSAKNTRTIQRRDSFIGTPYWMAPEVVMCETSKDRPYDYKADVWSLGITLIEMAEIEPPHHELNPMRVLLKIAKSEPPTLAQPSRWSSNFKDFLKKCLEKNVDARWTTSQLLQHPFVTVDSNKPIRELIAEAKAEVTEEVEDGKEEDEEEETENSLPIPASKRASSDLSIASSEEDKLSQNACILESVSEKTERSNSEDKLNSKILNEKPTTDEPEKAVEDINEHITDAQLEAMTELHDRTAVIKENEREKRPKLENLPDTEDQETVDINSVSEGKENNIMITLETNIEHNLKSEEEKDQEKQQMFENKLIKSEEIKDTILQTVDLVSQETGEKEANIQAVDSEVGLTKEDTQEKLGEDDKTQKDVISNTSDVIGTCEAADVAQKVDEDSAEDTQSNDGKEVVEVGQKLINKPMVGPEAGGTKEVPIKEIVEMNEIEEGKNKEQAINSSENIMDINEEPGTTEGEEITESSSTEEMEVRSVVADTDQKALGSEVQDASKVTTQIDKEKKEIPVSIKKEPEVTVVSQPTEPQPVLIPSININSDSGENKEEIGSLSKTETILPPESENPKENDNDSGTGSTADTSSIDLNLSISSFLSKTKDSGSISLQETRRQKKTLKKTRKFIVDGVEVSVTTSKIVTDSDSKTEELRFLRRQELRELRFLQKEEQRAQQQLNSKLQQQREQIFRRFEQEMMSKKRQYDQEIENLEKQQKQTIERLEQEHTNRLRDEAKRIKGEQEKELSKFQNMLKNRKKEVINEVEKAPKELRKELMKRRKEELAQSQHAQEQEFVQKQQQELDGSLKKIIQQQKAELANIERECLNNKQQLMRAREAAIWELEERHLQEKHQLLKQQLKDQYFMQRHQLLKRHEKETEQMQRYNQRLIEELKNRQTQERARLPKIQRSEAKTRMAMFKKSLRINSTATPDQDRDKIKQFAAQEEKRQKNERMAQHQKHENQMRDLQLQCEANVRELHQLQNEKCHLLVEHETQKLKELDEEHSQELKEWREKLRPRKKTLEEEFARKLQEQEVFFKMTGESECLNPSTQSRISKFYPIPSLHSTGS
Method in brief: as §1

CK2a2 = CK2a2 (Homo sapiens, UniProt P19784); conditions: read-out: Tm shift CK2a2
CK2a2, sequence (P19784 whole entry): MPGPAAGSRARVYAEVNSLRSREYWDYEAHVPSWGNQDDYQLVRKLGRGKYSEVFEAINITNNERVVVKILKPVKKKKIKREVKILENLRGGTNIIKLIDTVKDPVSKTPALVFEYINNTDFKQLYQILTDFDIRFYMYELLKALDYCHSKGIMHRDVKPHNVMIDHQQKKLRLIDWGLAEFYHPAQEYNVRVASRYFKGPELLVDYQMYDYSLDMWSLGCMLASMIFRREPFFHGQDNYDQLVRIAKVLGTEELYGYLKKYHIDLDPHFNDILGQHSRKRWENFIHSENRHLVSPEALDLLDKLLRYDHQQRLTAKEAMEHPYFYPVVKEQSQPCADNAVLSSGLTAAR
Method in brief: as §1

Haspin = molecular target: T2, Haspin (Homo sapiens, UniProt Q8TF76); conditions: read-out: Tm shift Haspin
T2 construct: purchased in-house (SGC Oxford thermal shift panel)
T2 sequence (Q8TF76 1-798): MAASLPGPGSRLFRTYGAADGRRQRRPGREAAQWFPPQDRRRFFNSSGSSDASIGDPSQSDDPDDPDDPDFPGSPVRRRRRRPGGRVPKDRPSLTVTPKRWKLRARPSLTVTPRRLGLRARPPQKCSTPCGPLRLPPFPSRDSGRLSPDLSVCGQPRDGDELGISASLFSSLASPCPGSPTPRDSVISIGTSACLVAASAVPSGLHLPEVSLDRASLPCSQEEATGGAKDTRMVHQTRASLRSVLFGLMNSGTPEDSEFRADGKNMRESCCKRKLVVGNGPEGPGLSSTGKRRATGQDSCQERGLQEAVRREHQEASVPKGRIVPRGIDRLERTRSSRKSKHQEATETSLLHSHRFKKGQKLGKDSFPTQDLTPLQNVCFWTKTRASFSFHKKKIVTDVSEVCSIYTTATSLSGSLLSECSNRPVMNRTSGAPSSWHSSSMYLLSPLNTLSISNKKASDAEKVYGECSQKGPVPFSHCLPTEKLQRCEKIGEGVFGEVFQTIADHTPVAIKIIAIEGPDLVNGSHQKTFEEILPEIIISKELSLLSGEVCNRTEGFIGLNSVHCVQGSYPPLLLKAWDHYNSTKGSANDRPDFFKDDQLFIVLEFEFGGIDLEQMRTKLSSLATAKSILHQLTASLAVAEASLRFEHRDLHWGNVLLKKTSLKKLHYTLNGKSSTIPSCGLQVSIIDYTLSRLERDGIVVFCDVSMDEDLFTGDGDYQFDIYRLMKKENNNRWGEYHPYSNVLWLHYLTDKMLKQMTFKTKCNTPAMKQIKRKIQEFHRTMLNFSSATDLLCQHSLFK
Method in brief: as §1

YSK1 = YSK1 (Homo sapiens, UniProt O00506); conditions: read-out: Tm shift YSK1
YSK1, sequence (O00506 whole entry): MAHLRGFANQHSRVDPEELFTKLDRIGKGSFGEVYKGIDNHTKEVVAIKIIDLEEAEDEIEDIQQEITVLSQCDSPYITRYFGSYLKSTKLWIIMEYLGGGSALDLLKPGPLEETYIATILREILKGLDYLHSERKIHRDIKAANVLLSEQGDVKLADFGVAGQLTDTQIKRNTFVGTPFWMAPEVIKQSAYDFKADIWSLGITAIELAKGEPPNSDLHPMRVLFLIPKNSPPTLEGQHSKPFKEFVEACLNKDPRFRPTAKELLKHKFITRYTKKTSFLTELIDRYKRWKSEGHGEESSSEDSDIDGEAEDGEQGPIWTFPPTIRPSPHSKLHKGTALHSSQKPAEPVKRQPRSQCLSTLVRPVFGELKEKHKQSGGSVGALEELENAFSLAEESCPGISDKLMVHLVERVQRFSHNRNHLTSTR
Method in brief: as §1

PIM3 = PIM3 (Homo sapiens, UniProt Q86V86); conditions: read-out: Tm shift PIM3
Method in brief: as §1

ACTR2 = ACTR2 (Homo sapiens, UniProt P27037); conditions: read-out: Tm shift ACTR2
ACTR2, sequence (P27037 20-513): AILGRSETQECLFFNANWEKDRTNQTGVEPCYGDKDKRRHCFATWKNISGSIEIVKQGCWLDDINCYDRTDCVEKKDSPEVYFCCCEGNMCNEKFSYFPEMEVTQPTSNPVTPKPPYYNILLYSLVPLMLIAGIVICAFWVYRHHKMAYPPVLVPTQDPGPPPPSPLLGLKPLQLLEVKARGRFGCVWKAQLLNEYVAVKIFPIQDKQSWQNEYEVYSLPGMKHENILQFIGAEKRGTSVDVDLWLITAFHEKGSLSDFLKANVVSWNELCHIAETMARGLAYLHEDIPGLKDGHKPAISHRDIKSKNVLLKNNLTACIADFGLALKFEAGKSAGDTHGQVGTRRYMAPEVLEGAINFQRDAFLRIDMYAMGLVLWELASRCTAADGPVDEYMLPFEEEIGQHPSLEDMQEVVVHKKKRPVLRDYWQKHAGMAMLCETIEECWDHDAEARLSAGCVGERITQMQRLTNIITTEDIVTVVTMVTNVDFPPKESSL
Method in brief: as §1

PCTAIRE1 = molecular target: T3, PCTAIRE1 (Homo sapiens, UniProt Q00536); conditions: read-out: Tm shift PCTAIRE1
T3 construct: purchased in-house (SGC Oxford thermal shift panel)
T3 sequence (Q00536 whole entry): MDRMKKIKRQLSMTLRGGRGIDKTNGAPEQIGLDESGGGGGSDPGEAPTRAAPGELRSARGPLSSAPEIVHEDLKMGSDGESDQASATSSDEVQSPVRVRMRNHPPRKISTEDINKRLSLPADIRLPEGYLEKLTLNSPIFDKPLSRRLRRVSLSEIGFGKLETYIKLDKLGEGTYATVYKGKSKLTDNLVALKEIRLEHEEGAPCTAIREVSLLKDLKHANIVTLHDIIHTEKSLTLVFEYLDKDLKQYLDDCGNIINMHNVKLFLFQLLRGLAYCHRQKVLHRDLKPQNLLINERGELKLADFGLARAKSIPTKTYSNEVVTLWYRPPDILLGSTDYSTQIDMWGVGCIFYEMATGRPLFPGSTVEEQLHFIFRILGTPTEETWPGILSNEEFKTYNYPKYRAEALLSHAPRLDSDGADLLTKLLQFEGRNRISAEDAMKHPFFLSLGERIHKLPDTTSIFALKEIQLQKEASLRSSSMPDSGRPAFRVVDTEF
Method in brief: as §1

CHK2, sequence (O96017 whole entry): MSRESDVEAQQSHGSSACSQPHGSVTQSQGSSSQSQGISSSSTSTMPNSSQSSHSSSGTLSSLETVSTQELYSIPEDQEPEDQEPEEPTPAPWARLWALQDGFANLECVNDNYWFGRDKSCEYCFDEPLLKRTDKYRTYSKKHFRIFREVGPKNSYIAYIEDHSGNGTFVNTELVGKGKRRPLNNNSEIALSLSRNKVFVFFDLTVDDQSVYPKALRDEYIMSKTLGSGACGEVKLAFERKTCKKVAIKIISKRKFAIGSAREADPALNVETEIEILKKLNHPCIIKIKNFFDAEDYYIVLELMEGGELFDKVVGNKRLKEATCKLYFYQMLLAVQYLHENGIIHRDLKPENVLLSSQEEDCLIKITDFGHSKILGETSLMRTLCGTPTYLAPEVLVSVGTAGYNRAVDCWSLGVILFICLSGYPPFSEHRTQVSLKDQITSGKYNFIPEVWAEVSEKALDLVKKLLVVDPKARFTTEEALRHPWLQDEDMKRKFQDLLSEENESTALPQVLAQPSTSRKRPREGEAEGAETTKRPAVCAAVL

CCOC(=O)c1c(C(C#N)=CN(C)C)c2ccc(Cl)c(Cl)c2n1C (mixture of isomers) [compound 2, (E/Z)-Ethyl 6,7-Dichloro-3-[1-Cyano-2-(Dimethylamino)Vinyl]-1-Methyl-1H-Indole-2-Carboxylate]
ΔTm at 10 µM (CHK2; inhibitor 10 μM): 0.3 °C
ΔTm at 10 µM (GAK; inhibitor 10 μM): 0.4 °C
ΔTm at 10 µM (SLK; inhibitor 10 μM): -0.7 °C
ΔTm at 10 µM (CK2a2; inhibitor 10 μM): 0 °C
ΔTm at 10 µM (Haspin; inhibitor 10 μM): 0.2 °C
ΔTm at 10 µM (YSK1; inhibitor 10 μM): 0.6 °C
ΔTm at 10 µM (PIM3; inhibitor 10 μM): 3.2 °C
ΔTm at 10 µM (ACTR2; inhibitor 10 μM): 0.6 °C
ΔTm at 10 µM (PCTAIRE1; inhibitor 10 μM): 0.4 °C

NC1=NC(=O)/C(=C2\CCNC(=O)c3[nH]c(Br)cc32)N1 [Hymenialdisine, hymenialdisine, reference compound]
ΔTm at 10 µM (CHK2; inhibitor 10 μM): 5.7 °C
ΔTm at 10 µM (GAK; inhibitor 10 μM): 3.8 °C
ΔTm at 10 µM (SLK; inhibitor 10 μM): 2.1 °C
ΔTm at 10 µM (CK2a2; inhibitor 10 μM): 1.2 °C
ΔTm at 10 µM (Haspin; inhibitor 10 μM): 3.9 °C
ΔTm at 10 µM (YSK1; inhibitor 10 μM): 1.7 °C
ΔTm at 10 µM (PIM3; inhibitor 10 μM): 3.8 °C
ΔTm at 10 µM (ACTR2; inhibitor 10 μM): 0.7 °C
ΔTm at 10 µM (PCTAIRE1; inhibitor 10 μM): 0.7 °C

CCOC(=O)c1c(C(C#N)=CN)c2ccc(Cl)c(Cl)c2n1C (mixture of isomers) [KH-CB20, (E/Z)-Ethyl 3-(2-Amino-1-Cyanovinyl)-6,7-Dichloro-1-Methyl-1H-Indole-2-Carboxylate]
ΔTm at 10 µM (CHK2): 1 °C
ΔTm at 10 µM (GAK): 0.8 °C
ΔTm at 10 µM (SLK): 0.1 °C
ΔTm at 10 µM (CK2a2): 1.3 °C
ΔTm at 10 µM (Haspin): 1.8 °C
ΔTm at 10 µM (YSK1): 0.1 °C
ΔTm at 10 µM (PIM3): 2.8 °C
ΔTm at 10 µM (ACTR2): 0.4 °C
ΔTm at 10 µM (PCTAIRE1): 0.1 °C

CCOC(=O)c1c(/C(C#N)=C\N)c2ccc(Cl)c(Cl)c2n1C [KH-CB19, (E)-Ethyl 3-(2-Amino-1-Cyanovinyl)-6,7-Dichloro-1-Methyl-1H-Indole-2-Carboxylate]
ΔTm at 10 µM (CHK2): 0.4 °C
ΔTm at 10 µM (GAK): 0.4 °C
ΔTm at 10 µM (SLK): 0 °C
ΔTm at 10 µM (CK2a2): 1.4 °C
ΔTm at 10 µM (Haspin): 2.1 °C
ΔTm at 10 µM (YSK1): -0.1 °C
ΔTm at 10 µM (PIM3): 3.1 °C
ΔTm at 10 µM (ACTR2): 0.2 °C
ΔTm at 10 µM (PCTAIRE1): 0.4 °C

Cn1c2c(Cl)c(Cl)ccc2c2c(C#N)c[nH]c(=O)c21 [compound 3, 7,8-Dichloro-9-Methyl-1-Oxo-2,9-Dihydro-1H-Pyrido[3,4-b]Indole-4-Carbonitrile]
ΔTm at 10 µM (CHK2; inhibitor 10 μM): 0.5 °C
ΔTm at 10 µM (GAK; inhibitor 10 μM): 0.8 °C
ΔTm at 10 µM (SLK; inhibitor 10 μM): -0.6 °C
ΔTm at 10 µM (CK2a2; inhibitor 10 μM): 1.7 °C
ΔTm at 10 µM (Haspin; inhibitor 10 μM): 2.1 °C
ΔTm at 10 µM (YSK1; inhibitor 10 μM): 0.2 °C
ΔTm at 10 µM (PIM3; inhibitor 10 μM): 4.2 °C
ΔTm at 10 µM (ACTR2; inhibitor 10 μM): 0.8 °C
ΔTm at 10 µM (PCTAIRE1; inhibitor 10 μM): 0.4 °C

Source: PMC3145970, “Specific CLK Inhibitors from a Novel Chemotype for Regulation of Alternative Splicing” (Chemistry & Biology, 2011)
